Assay type in all cases: cell-based
Test [1] has as its system spores of ATCC BBA1870 strain. Briefly: Inhibition of germination of C. difficile spores (MIC), strain ATCC BBA1870. The settings on record: Clostridioides difficile, ATCCBBA1870STRAIN, 1 h, read-out: MIC (minimum concentration that completely inhibits spore germination). Summed up: (§1)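 Spores heat-activated for 30 min at 65° C and washed, then preincubated with compound (10 mM DMSO stock) in BHIS at 37° C. Germination was triggered with sodium taurocholate, and OD580 was read each minute for 60 min. Inhibition = 100% − germination rate, from final vs initial OD relative to germinant-only controls.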

Test [2] concerns spores of ATCC 43255 strain. Briefly: Inhibition of germination of C. difficile spores (MIC), strain ATCC 43255. The conditions noted are these: Clostridioides difficile, ATCC43255, 1 h, read-out: MIC (minimum concentration that completely inhibits spore germination). A digest of the protocol:
as §1

The test system of test [3] is spores of ATCC 630 strain. Nature of the test: Inhibition of germination of C. difficile spores (MIC), strain ATCC 630. The settings on record: Clostridioides difficile, ATCC630, 1 h, read-out: MIC (minimum concentration that completely inhibits spore germination). Summed up:
as §1

Setting [4] is: strain 1870, sodium taurocholate as germinant, BHIS medium, 37° C., OD580 for 60 min.
Setting [5] is: strain 43255, sodium taurocholate as germinant, BHIS medium, 37° C., OD580 for 60 min.
[6] abbreviates: strain 630, sodium taurocholate as germinant, BHIS medium, 37° C., OD580 for 60 min.

The record followed here is patent US20230135729A1, “COMPOUND WITH ANTI-SPORE ACTIVITY AND PHARMACEUTICAL COMPOSITION THEREOF” (priority 2020, published 2023).

Values after ≈ are worked out from the molar mass of the structure shown. Like-named read-outs stand apart in the source and are kept apart here.

As to `CC[C@@H](NC(=O)C[C@@H](C)[C@H]1CC[C@H]2[C@@H]3[C@H](O)[C@H](O)[C@@H]4CC(=O)CC[C@]4(C)[C@H]3CC[C@]12C)c1ccc(Cl)s1` [Compound I-123], the MIC in test [1] (setting [4]), in test [2] (setting [5]) and in test [3] (setting [6]) was 64 µM (≈ 35.2 µg/mL) throughout.

Turning to `CC[C@H](NC(=O)C[C@@H](C)[C@H]1CC[C@H]2[C@@H]3[C@H](O)C[C@@H]4CC(=O)CC[C@]4(C)[C@H]3CC[C@]12C)c1ccc(Br)s1` [Compound I-90], the MIC in test [1] (setting [4]), in test [2] (setting [5]) and in test [3] (setting [6]) was over 256 µM throughout.

Regarding `CC[C@@H](NC(=O)C[C@@H](C)[C@H]1CC[C@H]2[C@@H]3[C@H](O)C[C@@H]4CC(=O)CC[C@]4(C)[C@H]3CC[C@]12C)c1ccc(Br)s1` [Compound I-91], the MIC in test [1] (setting [4]), in test [2] (setting [5]) and in test [3] (setting [6]) was 0.25 µM (≈ 0.145 µg/mL) in each case.

On to `CC(C)[C@@H](NC(=O)C[C@@H](C)[C@H]1CC[C@H]2[C@@H]3[C@H](O)C[C@@H]4CC(=O)CC[C@]4(C)[C@H]3CC[C@]12C)c1ccc(Cl)s1` [Compound I-97], for which the MIC in test [1] (setting [4]), in test [2] (setting [5]) and in test [3] (setting [6]) was 0.125 µM (≈ 0.0685 µg/mL) each time.

Take `C[C@H](CC(=O)NCc1cccs1)[C@H]1CC[C@H]2[C@@H]3C(=O)C[C@@H]4CC(=O)CC[C@]4(C)[C@H]3CC[C@]12C` [Compound I-26]: the results for the MIC in test [1] (setting [4]), in test [2] (setting [5]) and in test [3] (setting [6]) were 0.5 µM (≈ 0.235 µg/mL), 1 µM (≈ 0.47 µg/mL) and 0.5 µM (≈ 0.235 µg/mL), respectively.

For `CC(NC(=O)C[C@@H](C)[C@H]1CC[C@H]2[C@@H]3[C@H](O)C[C@@H]4C[C@H](O)CC[C@]4(C)[C@H]3CC[C@]12C)c1ccccc1` (stereo partly drawn) [Compound I-9], the MIC in test [1] (setting [4]), in test [2] (setting [5]) and in test [3] (setting [6]) was 8 µM (≈ 3.85 µg/mL) each time.

For the molecule `CC(C)C(NC(=O)C[C@@H](C)[C@H]1CC[C@H]2[C@@H]3[C@H](O)C[C@@H]4CC(=O)CC[C@]4(C)[C@H]3CC[C@]12C)c1cccs1` (stereo partly drawn) [Compound I-134], the MIC in test [1] (setting [4]), in test [2] (setting [5]) and in test [3] (setting [6]) was 2 µM (≈ 1.03 µg/mL) in each case.

On to `CC[C@H](NC(=O)C[C@@H](C)[C@H]1CC[C@H]2[C@@H]3[C@H](OS(=O)(=O)O)C[C@@H]4CC(=O)CC[C@]4(C)[C@H]3CC[C@]12C)c1ccc(Br)s1` [Compound I-108], for which the MIC in test [1] (setting [4]), in test [2] (setting [5]) and in test [3] (setting [6]) was over 256 µM each time.

With `CC(C)C(NC(=O)C[C@@H](C)[C@H]1CC[C@H]2[C@@H]3C(=O)C[C@@H]4CC(=O)CC[C@]4(C)[C@H]3CC[C@]12C)c1ccc(Br)s1` (stereo partly drawn) [Compound I-78], the MIC in test [1] (setting [4]) was 0.5 µM (≈ 0.295 µg/mL); in test [2] (setting [5]) it was 1 µM (≈ 0.591 µg/mL); in test [3] (setting [6]), 0.5 µM (≈ 0.295 µg/mL).

Consider `CCC(NC(=O)C[C@@H](C)[C@H]1CC[C@H]2[C@@H]3[C@H](OS(=O)(=O)O)C[C@@H]4CC(=O)CC[C@]4(C)[C@H]3CC[C@]12C)c1ccc(Cl)s1` (stereo partly drawn) [Compound I-104], for which the MIC in test [1] (setting [4]), in test [2] (setting [5]) and in test [3] (setting [6]) was 1 µM (≈ 0.614 µg/mL) each time.

As to `CC(C)C(NC(=O)C[C@@H](C)[C@H]1CC[C@H]2[C@@H]3[C@H](O)C[C@@H]4CC(=O)CC[C@]4(C)[C@H]3CC[C@]12C)c1ccc(Br)s1` (stereo partly drawn) [Compound I-98], the MIC in test [1] (setting [4]), in test [2] (setting [5]) and in test [3] (setting [6]) was 0.5 µM (≈ 0.296 µg/mL) throughout.

In the case of `CC(C)[C@@H](NC(=O)C[C@@H](C)[C@H]1CC[C@H]2[C@@H]3[C@H](OP(=O)(O)O)C[C@@H]4CC(=O)CC[C@]4(C)[C@H]3CC[C@]12C)c1ccc(Br)s1` [Compound I-194], the MIC in test [1] (setting [4]), in test [2] (setting [5]) and in test [3] (setting [6]) was 64 µM (≈ 43.1 µg/mL) throughout.

Take `CCC(NC(=O)C[C@@H](C)[C@H]1CC[C@H]2[C@@H]3[C@H](O)[C@H](O)[C@@H]4C[C@H](O)CC[C@]4(C)[C@H]3CC[C@]12C)c1cccs1` (stereo partly drawn) [Compound I-116]: the MIC in test [1] (setting [4]), in test [2] (setting [5]) and in test [3] (setting [6]) was 16 µM (≈ 8.28 µg/mL) in each case.

With `CC(C)[C@@H](NC(=O)C[C@@H](C)[C@H]1CC[C@H]2[C@@H]3[C@H](O)CC4=CC(=O)C=C[C@]4(C)[C@H]3CC[C@]12C)c1ccc(Br)s1` [Compound I-160-2], the MIC in test [1] (setting [4]), in test [2] (setting [5]) and in test [3] (setting [6]) was 0.5 µM (≈ 0.294 µg/mL) each time.

Regarding `C[C@H](CC(=O)NC(c1cccs1)C1CCCCC1)[C@H]1CC[C@H]2[C@@H]3C(=O)C[C@@H]4CC(=O)CC[C@]4(C)[C@H]3CC[C@]12C` (stereo partly drawn) [Compound I-54], the MIC in test [1] (setting [4]) was over 256 µM; in test [2] (setting [5]), over 256 µM; in test [3] (setting [6]), 256 µM (≈ 141 µg/mL).

With `CC(C)[C@@H](NC(=O)C[C@@H](C)[C@H]1CC[C@H]2[C@@H]3C(=O)C[C@@H]4CC(=O)CC[C@]4(C)[C@H]3CC[C@]12C)c1cccs1` [Compound I-66], the MIC in test [1] (setting [4]), in test [2] (setting [5]) and in test [3] (setting [6]) was 0.25 µM (≈ 0.128 µg/mL) in each case.

Turning to `CC(=O)c1ccc([C@H](NC(=O)C[C@@H](C)[C@H]2CC[C@H]3[C@@H]4C(=O)C[C@@H]5CC(=O)CC[C@]5(C)[C@H]4CC[C@]23C)C(C)C)s1` [Compound I-202], the MIC in test [1] (setting [4]), in test [2] (setting [5]) and in test [3] (setting [6]) was 32 µM (≈ 17.7 µg/mL) in each case.

Turning to `C[C@H](CC(=O)NCc1ccccn1)[C@H]1CC[C@H]2[C@@H]3C(=O)C[C@@H]4C[C@H](O)CC[C@]4(C)[C@H]3CC[C@]12C` [Compound I-16], the MIC in test [1] (setting [4]), in test [2] (setting [5]) and in test [3] (setting [6]) was 256 µM (≈ 119 µg/mL) throughout.

`C[C@H](CC(=O)NCc1ccco1)[C@H]1CC[C@H]2[C@@H]3[C@@H](O)C[C@@H]4C[C@H](O)CC[C@]4(C)[C@H]3CC[C@]12C` [Compound I-11]: the MIC in test [1] (setting [4]), in test [2] (setting [5]) and in test [3] (setting [6]) was 64 µM (≈ 29.3 µg/mL) in each case.

Consider `CC(C)[C@@H](NC(=O)C[C@@H](C)[C@H]1CC[C@H]2[C@@H]3[C@@H](O)C[C@@H]4C[C@H](O)CC[C@]4(C)[C@H]3CC[C@]12C)c1ccc(Br)s1` [Compound I-142], for which the MIC in test [1] (setting [4]), in test [2] (setting [5]) and in test [3] (setting [6]) was 32 µM (≈ 19 µg/mL) throughout.

For the molecule `CC(C)C(NC(=O)C[C@@H](C)[C@H]1CC[C@H]2[C@@H]3[C@H](OS(=O)(=O)O)C[C@@H]4CC(=O)CC[C@]4(C)[C@H]3CC[C@]12C)c1ccc(Cl)s1` (stereo partly drawn) [Compound I-110], the MIC in test [1] (setting [4]) was found to be 1 µM (≈ 0.628 µg/mL); in test [2] (setting [5]) it was 0.5 µM (≈ 0.314 µg/mL); in test [3] (setting [6]), 1 µM (≈ 0.628 µg/mL).

With `C[C@H](CC(=O)NCc1ccccn1)[C@H]1CC[C@H]2[C@@H]3[C@H](O)C[C@@H]4C[C@H](O)CC[C@]4(C)[C@H]3CC[C@]12C` [Compound I-6], the MIC in test [1] (setting [4]), in test [2] (setting [5]) and in test [3] (setting [6]) was 64 µM (≈ 30 µg/mL) in each case.

For the molecule `C[C@H](CC(=O)NC(c1cccs1)C(C)(C)C)[C@H]1CC[C@H]2[C@@H]3C(=O)C[C@@H]4CC(=O)CC[C@]4(C)[C@H]3CC[C@]12C` (stereo partly drawn) [Compound I-43], the MIC came out at 64 µM (≈ 33.7 µg/mL) in test [1] (setting [4]), 32 µM (≈ 16.8 µg/mL) in test [2] (setting [5]) and 32 µM (≈ 16.8 µg/mL) in test [3] (setting [6]).

Take `CCCCCCCCCCCC(NC(=O)C[C@@H](C)[C@H]1CC[C@H]2[C@@H]3C(=O)C[C@@H]4CC(=O)CC[C@]4(C)[C@H]3CC[C@]12C)c1cccs1` (stereo partly drawn) [Compound I-46]: the MIC in test [1] (setting [4]), in test [2] (setting [5]) and in test [3] (setting [6]) was over 256 µM throughout.

With `CC(C)[C@@H](NC(=O)C[C@@H](C)[C@H]1CC[C@H]2[C@@H]3[C@H](N)C[C@@H]4C[C@H](O)CC[C@]4(C)[C@H]3CC[C@]12C)c1ccc(Cl)s1` [Compound I-173], the values for the MIC in test [1] (setting [4]), in test [2] (setting [5]) and in test [3] (setting [6]) were 32 µM (≈ 17.6 µg/mL), 16 µM (≈ 8.79 µg/mL) and 16 µM (≈ 8.79 µg/mL), respectively.

Regarding `C[C@H](CC(=O)NC(Cc1ccccc1)c1ccccc1)[C@H]1CC[C@H]2[C@@H]3C(=O)C[C@@H]4CC(=O)CC[C@]4(C)[C@H]3CC[C@]12C` (stereo partly drawn) [Compound I-62], the MIC amounted to 256 µM (≈ 142 µg/mL) in test [1], 128 µM (≈ 70.9 µg/mL) in test [2] and 128 µM (≈ 70.9 µg/mL) in test [3].

Consider `CC[C@@H](NC(=O)C[C@@H](C)[C@H]1CC[C@H]2[C@@H]3[C@H](OC(=O)CCC(=O)O)C[C@@H]4CC(=O)CC[C@]4(C)[C@H]3CC[C@]12C)c1ccc(Br)s1` [Compound I-180], for which the results for the MIC in test [1] (setting [4]), in test [2] (setting [5]) and in test [3] (setting [6]) were 2 µM (≈ 1.36 µg/mL), 2 µM (≈ 1.36 µg/mL) and 1 µM (≈ 0.679 µg/mL), respectively.

Regarding `CCC(NC(=O)C[C@@H](C)[C@H]1CC[C@H]2[C@@H]3[C@H](O)C[C@@H]4CC(=O)CC[C@]4(C)[C@H]3CC[C@]12C)c1ccc(Br)s1` (stereo partly drawn) [Compound I-89], the MIC in test [1] (setting [4]), in test [2] (setting [5]) and in test [3] (setting [6]) was 0.5 µM (≈ 0.289 µg/mL) in each case.
